Values quoted from earlier work, collected in patent US20030073608A1 (priority 2001, published 2003).

Legend:
[1] = tested on: ventral tegmental dopamine cells (A10); conditions: limbic-related A10 cells; Bymaster et al., Eur. J. Pharmacol. 1998
[2] = tested on: substantia nigra dopamine cells (A9); conditions: Bymaster et al., Eur. J. Pharmacol. 1998

## CCCSc1nsnc1[C@H]1CN2CCC[C@H]1C2 [PTAC]
[1]
  antagonism of electrophysiological responses in ventral tegmental dopamine cells (A10): antagonizes electrophysiological responses
[2]
  antagonism of substantia nigra dopamine cells (A9): does not antagonize
